Test results reported in the NIST ThermoML archive (doi:10.1021/je0340755).

Assay: xn = mol fraction of the nth substance listed
Conditions: 101.3 kPa, Liquid; for viscosity: Capillary tube (Ostwald / Ubbelohde) method

OCCCO [propan-1,3-diol] + O
Conditions	mass density [kg/m3]	speed of sound [m/s]	viscosity [mPa·s]
298.15 K, x2 = 0.0622	1050.19	1650.1	37.15
298.15 K, x2 = 0.1496	1050.32	1654.3	32.92
298.15 K, x2 = 0.2563	1050.38	1670.2	27.68
298.15 K, x2 = 0.35	1050.3	1693.5	23.09
298.15 K, x2 = 0.4555	1049.74	1717.8	18.09
298.15 K, x2 = 0.5	1049.21	1723.1	16.07
298.15 K, x2 = 0.5548	1048.18	1726.1	13.67
298.15 K, x2 = 0.6522	1044.85	1723.3	9.731
298.15 K, x2 = 0.7553	1038.16	1712.1	6.136
298.15 K, x2 = 0.8522	1027.32	1689.1	3.434
298.15 K, x2 = 0.9085	1018.19	1653.2	2.22
298.15 K, x2 = 0.9147	1017.03	1646.8	2.104
298.15 K, x2 = 0.9255	1014.92	1636.1	1.91
298.15 K, x2 = 0.935	1012.97	1623.9	1.749
298.15 K, x2 = 0.9548	1008.63	1596	1.442
298.15 K, x2 = 0.9556	1008.44	1594	1.43
298.15 K, x2 = 0.9602	1007.37	1586	1.365
298.15 K, x2 = 0.97	1005	1568.2	1.233
298.15 K, x2 = 0.9801	1002.45	1547.1	1.107
298.15 K, x2 = 0.9897	999.9	1525.3	0.997
298.15 K, x2 = 0.9921	999.25	1519.1	0.971
298.15 K, x2 = 0.9951	998.42	1511	0.939
308.15 K, x2 = 0.0622	1043.88	1627.1	25.31
308.15 K, x2 = 0.1496	1044.01	1634.1	22.46
308.15 K, x2 = 0.2563	1044.07	1645.9	18.9
308.15 K, x2 = 0.35	1043.97	1662.2	15.8
308.15 K, x2 = 0.4555	1043.39	1681	12.44
308.15 K, x2 = 0.5	1042.86	1688	11.08
308.15 K, x2 = 0.5548	1041.87	1695.1	9.49
308.15 K, x2 = 0.6522	1038.75	1702.2	6.881
308.15 K, x2 = 0.7553	1032.55	1698.8	4.495
308.15 K, x2 = 0.8522	1022.53	1676.1	2.66
308.15 K, x2 = 0.9085	1014.02	1642.1	1.794
308.15 K, x2 = 0.9147	1012.94	1637.1	1.708
308.15 K, x2 = 0.9255	1010.96	1627.1	1.562
308.15 K, x2 = 0.935	1009.13	1617.2	1.439
308.15 K, x2 = 0.9548	1005.04	1594.1	1.197
308.15 K, x2 = 0.9556	1004.87	1593.1	1.188
308.15 K, x2 = 0.9602	1003.85	1586.2	1.135
308.15 K, x2 = 0.97	1001.61	1572.1	1.025
308.15 K, x2 = 0.9801	999.19	1556.1	0.917
308.15 K, x2 = 0.9897	996.76	1539.3	0.819
308.15 K, x2 = 0.9921	996.14	1534.1	0.795
308.15 K, x2 = 0.9951	995.35	1528.8	0.766
318.15 K, x2 = 0.0622	1037.53	1609.1	15.8
318.15 K, x2 = 0.1496	1037.64	1616	14.16
318.15 K, x2 = 0.2563	1037.68	1627.8	12.19
318.15 K, x2 = 0.35	1037.55	1643	10.48
318.15 K, x2 = 0.4555	1036.94	1661	8.554
318.15 K, x2 = 0.5	1036.42	1667	7.749
318.15 K, x2 = 0.5548	1035.46	1674.1	6.767
318.15 K, x2 = 0.6522	1032.48	1682	5.075
318.15 K, x2 = 0.7553	1026.64	1683	3.415
318.15 K, x2 = 0.8522	1017.23	1666.1	2.057
318.15 K, x2 = 0.9085	1009.22	1639.2	1.397
318.15 K, x2 = 0.9147	1008.19	1635.3	1.331
318.15 K, x2 = 0.9255	1006.32	1625.9	1.221
318.15 K, x2 = 0.935	1004.59	1617.9	1.127
318.15 K, x2 = 0.9548	1000.71	1598.1	0.945
318.15 K, x2 = 0.9556	1000.54	1592.2	0.938
318.15 K, x2 = 0.9602	999.58	1580.1	0.898
318.15 K, x2 = 0.97	997.45	1566.1	0.817
318.15 K, x2 = 0.9801	995.14	1552.1	0.737
318.15 K, x2 = 0.9897	992.82	1549.9	0.667
318.15 K, x2 = 0.9921	992.23	1548.1	0.65
318.15 K, x2 = 0.9951	991.47	1543.2	0.629
328.15 K, x2 = 0.0622	1031.1	1585.1	10.49
328.15 K, x2 = 0.1496	1031.18	1591.1	9.407
328.15 K, x2 = 0.2563	1031.17	1603.2	8.114
328.15 K, x2 = 0.35	1030.98	1618.2	6.986
328.15 K, x2 = 0.4555	1030.32	1635.8	5.721
328.15 K, x2 = 0.5	1029.79	1642.1	5.192
328.15 K, x2 = 0.5548	1028.83	1649.1	4.547
328.15 K, x2 = 0.6522	1025.94	1657.8	3.436
328.15 K, x2 = 0.7553	1020.39	1661.1	2.346
328.15 K, x2 = 0.8522	1011.49	1651.2	1.456
328.15 K, x2 = 0.9085	1003.89	1630	1.024
328.15 K, x2 = 0.9147	1002.92	1626.2	0.981
328.15 K, x2 = 0.9255	1001.14	1620.2	0.909
328.15 K, x2 = 0.935	999.49	1613.2	0.848
328.15 K, x2 = 0.9548	995.78	1597.2	0.729
328.15 K, x2 = 0.9556	995.62	1596.1	0.725
328.15 K, x2 = 0.9602	994.7	1591.8	0.699
328.15 K, x2 = 0.97	992.65	1582.1	0.646
328.15 K, x2 = 0.9801	990.44	1571.1	0.594
328.15 K, x2 = 0.9897	988.21	1559.2	0.549
328.15 K, x2 = 0.9921	987.63	1556.2	0.538
328.15 K, x2 = 0.9951	986.91	1552.2	0.524
338.15 K, x2 = 0.0622	1024.56	1565.1	7.386
338.15 K, x2 = 0.1496	1024.59	1571.2	6.633
338.15 K, x2 = 0.2563	1024.49	1582.3	5.732
338.15 K, x2 = 0.35	1024.2	1594.8	4.946
338.15 K, x2 = 0.4555	1023.41	1611.1	4.065
338.15 K, x2 = 0.5	1022.84	1616.8	3.696
338.15 K, x2 = 0.5548	1021.85	1623.9	3.247
338.15 K, x2 = 0.6522	1019	1634.1	2.473
338.15 K, x2 = 0.7553	1013.69	1639	1.715
338.15 K, x2 = 0.8522	1005.25	1632	1.096
338.15 K, x2 = 0.9085	998.04	1616	0.797
338.15 K, x2 = 0.9147	997.1	1613.2	0.767
338.15 K, x2 = 0.9255	995.41	1608.2	0.717
338.15 K, x2 = 0.935	993.83	1603.1	0.675
338.15 K, x2 = 0.9548	990.28	1591.1	0.593
338.15 K, x2 = 0.9556	990.13	1591.3	0.59
338.15 K, x2 = 0.9602	989.24	1587.1	0.572
338.15 K, x2 = 0.97	987.28	1579.9	0.536
338.15 K, x2 = 0.9801	985.14	1571	0.501
338.15 K, x2 = 0.9897	982.99	1562	0.469
338.15 K, x2 = 0.9921	982.43	1559.1	0.462
338.15 K, x2 = 0.9951	981.73	1556	0.453
